Reference: US6217866A, “Monoclonal antibodies specific to human epidermal growth factor receptor and therapeutic methods employing same” (Rhone-Poulenc Rorer International (Holdings), Inc., priority 1995, dated 2001)

Experiments:
[1] = tested on: KB cells; test: colony inhibition assay of KB cells; type: cell-based, human
Method: KB cells were seeded in petri dishes (50×15 mm^2, NUNC) at a concentration of 2×10^2 cells per dish. […] On the sixth day cultures were fed with fresh medium containing the above ingredients. On the 15th day the cultures were washed with PBS, fixed with 4% v/v formaldehyde in PBS for 15 min. and stained with hematoxylin. Number of formed colonies (25 cells) was then determined.

[2] = tested on: EGF receptors exposed on KB cells; test: competitive radioimmunoassay with 125I 108 monoclonal antibody on KB cells; type: binding, human
Method: The cells were then washed, solubilized in 0.5N NaOH and their radioactivity was determined in a counter (Kontron, Switzerland). Non-specific binding was determined by the addition of 100-fold excess of unlabelled monoclonal antibody.

## epidermal growth factor [EGF]
[1]; EGF
  size of KB cell colonies: increase in the size of KB cell colonies
[1]; EGF 160 nM, 15 days after seeding
  number of colonies compared to cells incubated in absence of growth factor: 150%
[2]
  maximal level of competition with binding of the antibody to the receptor: about 70%
